Assay results taken from ChEMBL document CHEMBL1130807, “The synthesis of symmetrical and unsymmetrical P1/P1' cyclic ureas as HIV protease inhibitors” (Bioorg Med Chem Lett, 1998).
Values after ≈ are worked out from the molar mass of the structure shown.

Experiments:
[1] = target: Human immunodeficiency virus type 1 protease (Human immunodeficiency virus 1, UniProt Q72874); experiment: Inhibition of human immunodeficiency virus (HIV) protease isolated enzyme assay
[2] = Antiviral activity was evaluated by whole cell based assay; format: functional
[3] = Solubility in 0.1 N HCl; format: physicochemical; settings: read-out: S
[4] = system: Human immunodeficiency virus 1; experiment: Compound was evaluated for potency against Double mutant HIV I84V/V82F strains; format: functional
[5] = system: Human immunodeficiency virus 1; experiment: Compound was evaluated for potency against HIV single mutant I84V strain; format: functional
[6] = system: Human immunodeficiency virus 1; experiment: Compound was evaluated for potency against […] HIV WT strain; format: functional

SMILES | Ki [1] [nM] | IC90 [2] [nM] | solubility [3] [µg/mL] | IC90 [4] [nM] | IC90 [5] [nM] | IC90 [6] [nM]
CC[C@@H]1[C@H](O)[C@@H](O)[C@@H](Cc2ccccc2)N(Cc2cccc(C(=O)Nc3nc4ccccc4[nH]3)c2)C(=O)N1Cc1cccc(C(=O)Nc2nc3ccccc3[nH]2)c1 | 0.069 | 26 |  |  |  | 
CCCCCC[C@@H]1[C@H](O)[C@@H](O)[C@@H](Cc2ccccc2)N(Cc2cccc(C(=O)Nc3nc4ccccc4[nH]3)c2)C(=O)N1Cc1cccc(C(=O)Nc2nc3ccccc3[nH]2)c1 | 0.046 | 9 | 118 (≈ 144 µM) | 24 | 24 | 9
CCCCCC[C@@H]1[C@H](O)[C@@H](O)[C@@H](CCCCCC)N(Cc2cccc(C(=O)Nc3nc4ccccc4[nH]3)c2)C(=O)N1Cc1cccc(C(=O)Nc2nc3ccccc3[nH]2)c1 | 0.35 | 86 |  |  |  | 
O=C(Nc1nc2ccccc2[nH]1)c1cccc(CN2C(=O)N(Cc3cccc(C(=O)Nc4nc5ccccc5[nH]4)c3)[C@H](C3CCCCC3)[C@H](O)[C@@H](O)[C@H]2C2CCCCC2)c1 | 0.29 | 14 |  |  |  | 
COc1ccc(C[C@@H]2[C@H](O)[C@@H](O)[C@@H](Cc3ccc(OC)cc3)N(Cc3cccc(C(=O)Nc4nc5ccccc5[nH]4)c3)C(=O)N2Cc2cccc(C(=O)Nc3nc4ccccc4[nH]3)c2)cc1 | 0.026 | 19 |  |  |  | 
CN(C)c1ccc(C[C@@H]2[C@H](O)[C@@H](O)[C@@H](Cc3ccc(N(C)C)cc3)N(Cc3cccc(C(=O)Nc4nc5ccccc5[nH]4)c3)C(=O)N2Cc2cccc(C(=O)Nc3nc4ccccc4[nH]3)c2)cc1 | 0.038 | 8 | 13.2 (≈ 14.5 µM) | 22 | 8 | 8
O=C(Nc1nc2ccccc2[nH]1)c1cccc(CN2C(=O)N(Cc3cccc(C(=O)Nc4nc5ccccc5[nH]4)c3)[C@H](Cc3ccc(O)cc3)[C@H](O)[C@@H](O)[C@H]2Cc2ccc(O)cc2)c1 | 0.035 | 35 |  |  |  | 
O=C(Nc1nc2ccccc2[nH]1)c1cccc(CN2C(=O)N(Cc3cccc(C(=O)Nc4nc5ccccc5[nH]4)c3)[C@H](Cc3ccc(OCc4ccccc4)cc3)[C@H](O)[C@@H](O)[C@H]2Cc2ccc(OCc3ccccc3)cc2)c1 | 3.7 | 125 |  |  |  | 
CC(C)C[C@@H]1[C@H](O)[C@@H](O)[C@@H](CC(C)C)N(Cc2cccc(C(=O)Nc3nc4ccccc4[nH]3)c2)C(=O)N1Cc1cccc(C(=O)Nc2nc3ccccc3[nH]2)c1 | 0.3 | 59 |  | 12 | 20 | 26
Nc1ccc(C[C@@H]2[C@H](O)[C@@H](O)[C@@H](Cc3ccc(N)cc3)N(Cc3cccc(C(=O)Nc4nc5ccccc5[nH]4)c3)C(=O)N2Cc2cccc(C(=O)Nc3nc4ccccc4[nH]3)c2)cc1 | 0.016 | 10 | 8.3 (≈ 9.71 µM) | 76 | 23 | 10
CC(C)C[C@@H]1[C@H](O)[C@@H](O)[C@@H](Cc2ccccc2)N(Cc2cccc(C(=O)Nc3nc4ccccc4[nH]3)c2)C(=O)N1Cc1cccc(C(=O)Nc2nc3ccccc3[nH]2)c1 | 0.038 | 10 | 160 (≈ 202 µM) | 82 | 9 | 10
CC[C@@H]1[C@H](O)[C@@H](O)[C@@H](CC)N(Cc2cccc(C(=O)Nc3nc4ccccc4[nH]3)c2)C(=O)N1Cc1cccc(C(=O)Nc2nc3ccccc3[nH]2)c1 | 4.5 | 570 |  |  |  | 
O=C(Nc1nc2ccccc2[nH]1)c1cccc(CN2C(=O)N(Cc3cccc(C(=O)Nc4nc5ccccc5[nH]4)c3)[C@H](Cc3ccccc3)[C@H](O)[C@@H](O)[C@H]2Cc2ccccc2)c1 |  | 5 | 0.05 (≈ 0.0606 µM) | 21 | 5 | 5
